Measurements: patent publication US9834514B2, “Antibiotic sensitivity-restoring and photosensitive agents” (New Mexico Tech Research Foundation, priority 2015, dated 2017)
In brackets after ≈: the same amount, converted by molar mass. Read-outs that look alike come from different tables or passages of the source.

What was measured:
P. aeruginosa = experiment: Resensitization to antibiotics (log reduction, TABLE 29); assay type: cell-based; conditions: compound 20 μM; PME (0.1 μg/mL)
S. aureus (ATCC 29213) = experiment: microbe, parasite or virus in culture; assay type: cell-based
Experimental: Each mixture was incubated at 37° C. on a rotary shaking incubator for about 16 hours. MTT was then added to assess the viability of the cells (at 10% well volume). […] The cells were then streaked onto a TSA plate and incubated overnight at 37° C. These steps were repeated to reach a total of 30 exposures.

[1] = test system: Klebsiella pneumoniae (CRE, ATCC BAA-1705); experiment: MIC against CRE; assay type: cell-based; conditions: Klebsiella pneumoniae, ATCCBAA1705
VRE = experiment: Resensitization to antibiotics (log reduction, TABLE 29); assay type: cell-based, Enterococcus faecalis; conditions: compound 7.5 μM
[2] = test system: Klebsiella pneumoniae (CRE, ATCC BAA-1705); experiment: Time-dependent colony counts of CRE with compounds and PME; assay type: cell-based; conditions: PME 0.2 μg/mL, compound 20 μM; FIGS. 48, 49
Experimental: The MICs of PME and compounds 8-11 were determined against Klebsiella pneumoniae (CRE, ATCC BAA-1705). […] […] At specific time points, the samples were taken and diluted ten-fold in media. Ten microliters of each dilution was then drip-streaked onto an agar plate and incubated overnight at 37° C. Colony counts were then performed and the CFU/mL were calculated.

[3] = MIC against MRSA isolates; assay type: cell-based, S. aureus; conditions: Staphylococcus aureus
In short: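 Broth microdilution in TSB, ~5×10^5 CFU/mL, two-fold dilutions from 100 μM, overnight at 37 °C shaking 100 rpm.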

[4] = test system: MRSA isolates (S. aureus ATCC 33591, BAA-44, BAA-1707, BAA-1717, BAA-1720, BAA-1747, BAA-1754, BAA-1761, BAA-1763, BAA-1764, BAA-1766); experiment: Combination effects of compounds 7-11 and antibiotics on MRSA isolates (turbidity); assay type: cell-based
From the text: Inhibition resulting from co-treatment of a broth suspension with a compound of the invention and an antibiotic was compared to broth suspensions subjected to each individual treatment. A visual observation of inhibition with the unaided eye upon co-treatment of the broth suspensions, based on turbidity, was considered synergistic.
Exceptions to reading complete inhibition of growth included Gram-positive cocci. For Gram-positive cocci, trailing growth was observed. For these species, the MICs were read at the first spot where trailing was observed, and tiny buttons of growth were ignored. […]
Two-fold dilutions of the antibiotics were prepared in a liquid growth medium dispensed in test tubes. […] The antibiotic-containing tubes were inoculated with a standard bacterial suspension of 5×10^5 CFU/mL. Following an overnight incubation (16-20 hrs) at 35±2° C. under ambient air, the tubes were examined for visible bacterial growth based on turbidity. The lowest concentration of antibiotic that prevented growth was determined to be the MIC. An incubation time of 24 hrs was used to determine the MICs of oxacillin and vancomycin.

**Q.** For `Brc1ccc(/N=N/c2c[nH]c3ccccc23)cc1` [Compound 8], which “Log Reduction” value (P. aeruginosa) is on record?
**A.** The value was 4.

**Q.** And the “Resistance Evolved” value (S. aureus (ATCC 29213))?
**A.** Its value is “No”.

**Q.** And the MIC [1]?
**A.** Its MIC is greater than 100 µM.

**Q.** What about the “Log Reduction” value (VRE; Tetracycline (1.5 μg/mL)) of the same molecule?
**A.** Its value is 3-4.

**Q.** And the “Log Reduction” value (VRE; Vancomycin (3.5 μg/mL))?
**A.** Its value is 3.

**Q.** And the “CRE colony populations on simultaneous treatment with PME” value [2]?
**A.** The value was “reduced the CRE colony populations to sterility”.

**Q.** What about the MIC ([3]; MRSA (ATCC BAA-44), TABLE 21, read-out: MRSA MIC) of the same molecule?
**A.** Its MIC is 15 µM (≈ 4.5 µg/mL).

**Q.** What about the MIC ([3]; MRSA isolate ATCC 33591, read-out: MIC) of the same molecule?
**A.** The MIC was 3.1 to 6.3 µM (≈ 0.93 to 1.89 µg/mL).

**Q.** And the MIC ([3]; MRSA isolate ATCC BAA-44, read-out: MIC)?
**A.** The MIC was 15 µM (≈ 4.5 µg/mL).

**Q.** What about the MIC ([3]; MRSA isolate ATCC BAA-1707, read-out: MIC) of the same molecule?
**A.** Its MIC is 6.3 µM (≈ 1.89 µg/mL).

**Q.** And the MIC ([3]; MRSA isolate ATCC BAA-1717, read-out: MIC)?
**A.** The MIC was 6.3 µM (≈ 1.89 µg/mL).

**Q.** What about the MIC ([3]; MRSA isolate ATCC BAA-1720, read-out: MIC) of the same molecule?
**A.** The MIC was 6.3 µM (≈ 1.89 µg/mL).

**Q.** And the MIC ([3]; MRSA isolate ATCC BAA-1747, read-out: MIC)?
**A.** The MIC was 6.3 µM (≈ 1.89 µg/mL).

**Q.** And the MIC ([3]; MRSA isolate ATCC BAA-1754, read-out: MIC)?
**A.** Its MIC is 12.5 µM (≈ 3.75 µg/mL).

**Q.** What about the MIC ([3]; MRSA isolate ATCC BAA-1761, read-out: MIC) of the same molecule?
**A.** The MIC was 12.5 µM (≈ 3.75 µg/mL).

**Q.** And the MIC ([3]; MRSA isolate ATCC BAA-1763, read-out: MIC)?
**A.** Its MIC is 6.3 µM (≈ 1.89 µg/mL).

**Q.** What about the MIC ([3]; MRSA isolate ATCC BAA-1764, read-out: MIC) of the same molecule?
**A.** The MIC was 12.5 µM (≈ 3.75 µg/mL).

**Q.** And the MIC ([3]; MRSA isolate ATCC BAA-1766, read-out: MIC)?
**A.** The MIC was 12.5 µM (≈ 3.75 µg/mL).

**Q.** What about the “combination effect with Gentamycin” value ([4]; MRSA ATCC 33591) of the same molecule?
**A.** The value was “No Synergy”.

**Q.** And the “combination effect with Norfloxacin” value ([4]; MRSA ATCC 33591)?
**A.** Its value is “No Synergy”.

**Q.** And the “combination effect with Oxacillin” value ([4]; MRSA ATCC 33591)?
**A.** Its value is “No Synergy”.

**Q.** What about the “combination effect with Tetracycline” value ([4]; MRSA ATCC 33591) of the same molecule?
**A.** The value was “No Synergy”.

**Q.** What about the “combination effect with Vancomycin” value ([4]; MRSA ATCC 33591) of the same molecule?
**A.** Its value is “Susceptible”.

**Q.** What about the “combination effect with Norfloxacin” value ([4]; MRSA ATCC BAA-44) of the same molecule?
**A.** Its value is “No Synergy”.

**Q.** What about the “combination effect with Oxacillin” value ([4]; MRSA ATCC BAA-44) of the same molecule?
**A.** Its value is “No Synergy”.

**Q.** What about the “combination effect with Tetracycline” value ([4]; MRSA ATCC BAA-44) of the same molecule?
**A.** The value was “Susceptible”.

**Q.** What about the “combination effect with Vancomycin” value ([4]; MRSA ATCC BAA-44) of the same molecule?
**A.** The value was “Susceptible”.

**Q.** What about the “combination effect with Gentamycin” value ([4]; MRSA ATCC BAA-1707) of the same molecule?
**A.** Its value is “Susceptible”.

**Q.** What about the “combination effect with Norfloxacin” value ([4]; MRSA ATCC BAA-1707) of the same molecule?
**A.** Its value is “Susceptible”.

**Q.** What about the “combination effect with Oxacillin” value ([4]; MRSA ATCC BAA-1707) of the same molecule?
**A.** The value was “Susceptible”.

**Q.** And the “combination effect with Tetracycline” value ([4]; MRSA ATCC BAA-1707)?
**A.** Its value is “No Synergy”.

**Q.** And the “combination effect with Vancomycin” value ([4]; MRSA ATCC BAA-1707)?
**A.** Its value is “Susceptible”.

**Q.** And the “combination effect with Gentamycin” value ([4]; MRSA ATCC BAA-1717)?
**A.** The value was “Susceptible”.

**Q.** What about the “combination effect with Norfloxacin” value ([4]; MRSA ATCC BAA-1717) of the same molecule?
**A.** The value was “Susceptible”.

**Q.** And the “combination effect with Oxacillin” value ([4]; MRSA ATCC BAA-1717)?
**A.** The value was “Synergy”.

**Q.** And the “combination effect with Tetracycline” value ([4]; MRSA ATCC BAA-1717)?
**A.** The value was “Susceptible”.

**Q.** And the “combination effect with Vancomycin” value ([4]; MRSA ATCC BAA-1717)?
**A.** The value was “Susceptible”.

**Q.** What about the “combination effect with Gentamycin” value ([4]; MRSA ATCC BAA-1720) of the same molecule?
**A.** The value was “Susceptible”.

**Q.** And the “combination effect with Norfloxacin” value ([4]; MRSA ATCC BAA-1720)?
**A.** Its value is “No Synergy”.

**Q.** What about the “combination effect with Oxacillin” value ([4]; MRSA ATCC BAA-1720) of the same molecule?
**A.** The value was “Synergy”.

**Q.** What about the “combination effect with Tetracycline” value ([4]; MRSA ATCC BAA-1720) of the same molecule?
**A.** The value was “Susceptible”.

**Q.** What about the “combination effect with Vancomycin” value ([4]; MRSA ATCC BAA-1720) of the same molecule?
**A.** Its value is “Susceptible”.

**Q.** What about the “combination effect with Gentamycin” value ([4]; MRSA ATCC BAA-1747) of the same molecule?
**A.** The value was “Susceptible”.

**Q.** What about the “combination effect with Norfloxacin” value ([4]; MRSA ATCC BAA-1747) of the same molecule?
**A.** Its value is “Susceptible”.

**Q.** And the “combination effect with Oxacillin” value ([4]; MRSA ATCC BAA-1747)?
**A.** The value was “Susceptible”.

**Q.** And the “combination effect with Tetracycline” value ([4]; MRSA ATCC BAA-1747)?
**A.** Its value is “Susceptible”.

**Q.** And the “combination effect with Vancomycin” value ([4]; MRSA ATCC BAA-1747)?
**A.** Its value is “Susceptible”.

**Q.** And the “combination effect with Gentamycin” value ([4]; MRSA ATCC BAA-1754)?
**A.** Its value is “Susceptible”.

**Q.** And the “combination effect with Norfloxacin” value ([4]; MRSA ATCC BAA-1754)?
**A.** The value was “Susceptible”.

**Q.** And the “combination effect with Oxacillin” value ([4]; MRSA ATCC BAA-1754)?
**A.** The value was “Synergy”.

**Q.** What about the “combination effect with Tetracycline” value ([4]; MRSA ATCC BAA-1754) of the same molecule?
**A.** The value was “Susceptible”.

**Q.** What about the “combination effect with Vancomycin” value ([4]; MRSA ATCC BAA-1754) of the same molecule?
**A.** The value was “Susceptible”.

**Q.** And the “combination effect with Gentamycin” value ([4]; MRSA ATCC BAA-1761)?
**A.** Its value is “Susceptible”.

**Q.** What about the “combination effect with Norfloxacin” value ([4]; MRSA ATCC BAA-1761) of the same molecule?
**A.** The value was “No Synergy”.

**Q.** What about the “combination effect with Oxacillin” value ([4]; MRSA ATCC BAA-1761) of the same molecule?
**A.** Its value is “Susceptible”.

**Q.** What about the “combination effect with Tetracycline” value ([4]; MRSA ATCC BAA-1761) of the same molecule?
**A.** Its value is “Susceptible”.

**Q.** What about the “combination effect with Vancomycin” value ([4]; MRSA ATCC BAA-1761) of the same molecule?
**A.** Its value is “Susceptible”.

**Q.** What about the “combination effect with Gentamycin” value ([4]; MRSA ATCC BAA-1763) of the same molecule?
**A.** Its value is “Susceptible”.

**Q.** What about the “combination effect with Norfloxacin” value ([4]; MRSA ATCC BAA-1763) of the same molecule?
**A.** The value was “No Synergy”.

**Q.** And the “combination effect with Oxacillin” value ([4]; MRSA ATCC BAA-1763)?
**A.** The value was “Synergy”.

**Q.** What about the “combination effect with Tetracycline” value ([4]; MRSA ATCC BAA-1763) of the same molecule?
**A.** The value was “Susceptible”.

**Q.** What about the “combination effect with Vancomycin” value ([4]; MRSA ATCC BAA-1763) of the same molecule?
**A.** Its value is “Susceptible”.

**Q.** What about the “combination effect with Gentamycin” value ([4]; MRSA ATCC BAA-1764) of the same molecule?
**A.** The value was “Susceptible”.

**Q.** What about the “combination effect with Norfloxacin” value ([4]; MRSA ATCC BAA-1764) of the same molecule?
**A.** The value was “Susceptible”.

**Q.** And the “combination effect with Oxacillin” value ([4]; MRSA ATCC BAA-1764)?
**A.** The value was “Synergy”.

**Q.** What about the “combination effect with Tetracycline” value ([4]; MRSA ATCC BAA-1764) of the same molecule?
**A.** The value was “Susceptible”.

**Q.** And the “combination effect with Vancomycin” value ([4]; MRSA ATCC BAA-1764)?
**A.** The value was “Susceptible”.

**Q.** And the “combination effect with Gentamycin” value ([4]; MRSA ATCC BAA-1766)?
**A.** Its value is “Susceptible”.

**Q.** And the “combination effect with Norfloxacin” value ([4]; MRSA ATCC BAA-1766)?
**A.** Its value is “Susceptible”.

**Q.** And the “combination effect with Oxacillin” value ([4]; MRSA ATCC BAA-1766)?
**A.** The value was “Synergy”.

**Q.** What about the “combination effect with Tetracycline” value ([4]; MRSA ATCC BAA-1766) of the same molecule?
**A.** The value was “Susceptible”.

**Q.** And the “combination effect with Vancomycin” value ([4]; MRSA ATCC BAA-1766)?
**A.** The value was “Susceptible”.
